A short description of series [1]: DRUGMATRIX: Glutamate, NMDA, Phencyclidine radioligand binding (ligand: [3H] TCP). The class given is cell membranes, Rattus norvegicus, Wistar, Cerebral cortex, Membrane. To be noted: Not Active = under 50% inhibition at 10 µM.
Series [2] concerns the target T1, Muscarinic acetylcholine receptor M5 (Homo sapiens, UniProt P08912). Also: in other assays of this panel Not Active means under 50% inhibition at 10 µM.
T1 sequence (P08912 whole entry): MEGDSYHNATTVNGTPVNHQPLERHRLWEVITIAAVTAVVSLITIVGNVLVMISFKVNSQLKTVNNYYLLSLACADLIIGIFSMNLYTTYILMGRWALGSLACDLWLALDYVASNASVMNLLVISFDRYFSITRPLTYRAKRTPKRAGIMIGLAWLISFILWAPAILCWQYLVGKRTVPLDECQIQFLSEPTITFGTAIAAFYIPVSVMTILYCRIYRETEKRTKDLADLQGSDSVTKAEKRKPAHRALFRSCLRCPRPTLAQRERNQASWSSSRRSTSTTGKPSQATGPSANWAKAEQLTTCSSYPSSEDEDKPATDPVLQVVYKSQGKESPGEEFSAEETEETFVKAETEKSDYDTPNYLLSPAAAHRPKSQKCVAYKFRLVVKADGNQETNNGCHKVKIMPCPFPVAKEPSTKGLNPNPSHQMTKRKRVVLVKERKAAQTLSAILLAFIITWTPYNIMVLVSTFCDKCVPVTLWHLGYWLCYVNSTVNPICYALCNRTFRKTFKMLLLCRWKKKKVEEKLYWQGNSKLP
The class given is cell membranes, CHO-K1, Membrane. To be noted: cho-k1.

The next series has as its target Insulin receptor (Rattus norvegicus, UniProt P15127). The class given is cell membranes, Wistar, Liver, Membrane. Also: in other assays of this panel Not Active means under 50% inhibition at 10 µM.
Another series addresses Cytochrome P450 2E1 (Homo sapiens, UniProt P05181). To be noted: bti-tn-5b1-4.
A short description of series [3]: DRUGMATRIX: GABAA, Flunitrazepam, Central radioligand binding (ligand: [3H] Flunitrazepam). The class given is cell membranes, Rattus norvegicus, Wistar, Brain, Membrane. To be noted: Not Active = under 50% inhibition at 10 µM.
The target in the next series is Mu-type opioid receptor (Homo sapiens, UniProt P35372). Description: DRUGMATRIX: Opiate mu (OP3, MOP) radioligand binding (ligand: [3H] Diprenorphine). The class given is cell membranes, CHO-K1, Membrane. To be noted: cho-k1; Not Active = under 50% inhibition at 10 µM.
Sequence of Mu-type opioid receptor (P35372 whole entry): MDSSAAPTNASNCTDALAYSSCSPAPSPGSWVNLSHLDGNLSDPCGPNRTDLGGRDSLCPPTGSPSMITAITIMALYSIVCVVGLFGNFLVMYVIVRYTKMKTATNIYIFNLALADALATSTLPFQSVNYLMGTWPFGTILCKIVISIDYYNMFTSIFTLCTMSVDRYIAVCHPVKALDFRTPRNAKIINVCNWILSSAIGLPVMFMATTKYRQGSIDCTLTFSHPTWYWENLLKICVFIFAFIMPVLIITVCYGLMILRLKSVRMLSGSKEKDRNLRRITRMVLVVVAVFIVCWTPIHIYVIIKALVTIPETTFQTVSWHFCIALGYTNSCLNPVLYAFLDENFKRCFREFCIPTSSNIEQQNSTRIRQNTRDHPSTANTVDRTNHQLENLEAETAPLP
The nature of series [4]: DRUGMATRIX: Phosphodiesterase PDE3 enzyme inhibition (substrate: [3H]cAMP + cAMP). The class given is tissue-based, Homo sapiens. To be noted: platelet, Not Active = under 50% inhibition at 10 µM.
Series [5] can be described thus: DRUGMATRIX: Leukotriene, BLT (LTB4) radioligand binding (ligand: [3H]LTB4). To be noted: u-937; Not Active = under 50% inhibition at 10 µM. The class given is cell membranes, Membrane.
A further series has as its target Melanocortin receptor 4 (Homo sapiens, UniProt P32245). The class given is cell membranes, Membrane. To be noted: hek293. Also: in other assays of this panel Not Active means under 50% inhibition at 10 µM.
The target in the next series is T2, Cytochrome P450 2A6 (Homo sapiens, UniProt P11509). Also: in other assays of this panel Not Active means under 50% inhibition at 10 µM.
T2 sequence (P11509 whole entry): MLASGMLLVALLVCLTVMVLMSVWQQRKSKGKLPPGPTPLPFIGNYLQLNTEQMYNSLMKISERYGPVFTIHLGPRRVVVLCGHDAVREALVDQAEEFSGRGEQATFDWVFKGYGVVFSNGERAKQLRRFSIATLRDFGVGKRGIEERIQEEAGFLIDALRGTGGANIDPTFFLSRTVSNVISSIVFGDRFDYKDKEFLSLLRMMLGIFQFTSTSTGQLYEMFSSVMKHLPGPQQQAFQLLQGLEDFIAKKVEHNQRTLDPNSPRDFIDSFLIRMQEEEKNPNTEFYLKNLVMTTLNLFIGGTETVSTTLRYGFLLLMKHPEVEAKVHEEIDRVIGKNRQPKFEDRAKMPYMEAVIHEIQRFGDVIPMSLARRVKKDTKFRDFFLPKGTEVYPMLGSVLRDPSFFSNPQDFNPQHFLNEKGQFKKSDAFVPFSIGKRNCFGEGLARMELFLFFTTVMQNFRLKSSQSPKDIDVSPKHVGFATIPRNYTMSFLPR
To be noted: bti-tn-5b1-4.

The target of series [6] is T3, Muscarinic acetylcholine receptor M2 (Homo sapiens, UniProt P08172). Also: in other assays of this panel Not Active means under 50% inhibition at 10 µM.
T3 sequence (P08172 whole entry): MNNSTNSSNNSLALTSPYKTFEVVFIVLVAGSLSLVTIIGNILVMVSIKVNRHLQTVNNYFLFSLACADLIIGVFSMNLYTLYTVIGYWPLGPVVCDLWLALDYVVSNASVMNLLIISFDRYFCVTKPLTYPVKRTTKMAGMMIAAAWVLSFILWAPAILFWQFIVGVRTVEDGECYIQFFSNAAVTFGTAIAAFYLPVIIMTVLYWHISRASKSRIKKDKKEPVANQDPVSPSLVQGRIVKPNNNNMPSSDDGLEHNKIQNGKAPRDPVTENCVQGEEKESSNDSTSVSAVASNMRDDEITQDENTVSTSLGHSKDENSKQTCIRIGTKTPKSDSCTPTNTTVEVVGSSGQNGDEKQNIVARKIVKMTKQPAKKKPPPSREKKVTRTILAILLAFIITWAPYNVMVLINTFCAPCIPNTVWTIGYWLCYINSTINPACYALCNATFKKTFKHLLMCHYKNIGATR
The class given is cell membranes, CHO-K1, Membrane. To be noted: cho-k1.

Sequence of Insulin receptor (P15127 27-759 limits assumed): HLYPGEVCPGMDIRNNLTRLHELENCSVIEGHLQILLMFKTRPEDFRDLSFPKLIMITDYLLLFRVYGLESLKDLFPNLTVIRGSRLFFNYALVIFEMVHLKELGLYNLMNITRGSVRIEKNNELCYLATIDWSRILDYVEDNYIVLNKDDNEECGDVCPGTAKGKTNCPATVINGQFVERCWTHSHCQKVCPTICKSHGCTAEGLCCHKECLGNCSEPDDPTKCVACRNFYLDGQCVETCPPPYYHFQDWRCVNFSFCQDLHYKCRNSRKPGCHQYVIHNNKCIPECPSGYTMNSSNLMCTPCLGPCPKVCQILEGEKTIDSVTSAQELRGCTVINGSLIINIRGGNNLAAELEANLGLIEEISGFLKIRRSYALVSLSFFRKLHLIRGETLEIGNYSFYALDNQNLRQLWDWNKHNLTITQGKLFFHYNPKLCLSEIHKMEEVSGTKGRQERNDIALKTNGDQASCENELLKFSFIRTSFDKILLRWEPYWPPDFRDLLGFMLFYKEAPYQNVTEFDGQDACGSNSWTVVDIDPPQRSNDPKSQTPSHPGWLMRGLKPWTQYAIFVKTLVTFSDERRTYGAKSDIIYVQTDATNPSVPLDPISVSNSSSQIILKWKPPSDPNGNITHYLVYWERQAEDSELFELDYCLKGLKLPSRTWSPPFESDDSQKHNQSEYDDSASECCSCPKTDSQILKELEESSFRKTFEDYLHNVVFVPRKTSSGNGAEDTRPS
Sequence of Insulin receptor (P15127 764-1383 limits assumed): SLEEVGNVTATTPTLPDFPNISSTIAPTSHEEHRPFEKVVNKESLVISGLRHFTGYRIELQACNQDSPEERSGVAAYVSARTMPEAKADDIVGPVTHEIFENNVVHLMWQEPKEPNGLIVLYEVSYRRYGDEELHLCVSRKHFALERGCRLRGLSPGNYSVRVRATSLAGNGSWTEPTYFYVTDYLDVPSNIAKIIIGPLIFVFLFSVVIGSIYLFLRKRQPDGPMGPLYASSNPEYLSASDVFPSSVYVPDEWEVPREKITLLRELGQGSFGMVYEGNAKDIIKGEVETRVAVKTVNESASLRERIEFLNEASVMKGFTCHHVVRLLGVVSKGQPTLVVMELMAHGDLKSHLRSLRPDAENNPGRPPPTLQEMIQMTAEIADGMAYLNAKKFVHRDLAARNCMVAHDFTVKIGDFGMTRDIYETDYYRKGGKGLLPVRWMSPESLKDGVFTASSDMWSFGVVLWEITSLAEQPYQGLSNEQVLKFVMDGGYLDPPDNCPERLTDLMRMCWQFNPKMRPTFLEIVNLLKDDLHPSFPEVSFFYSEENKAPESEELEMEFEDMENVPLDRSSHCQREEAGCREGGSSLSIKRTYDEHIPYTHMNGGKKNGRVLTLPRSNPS
Sequence of Melanocortin receptor 4 (P32245 whole entry): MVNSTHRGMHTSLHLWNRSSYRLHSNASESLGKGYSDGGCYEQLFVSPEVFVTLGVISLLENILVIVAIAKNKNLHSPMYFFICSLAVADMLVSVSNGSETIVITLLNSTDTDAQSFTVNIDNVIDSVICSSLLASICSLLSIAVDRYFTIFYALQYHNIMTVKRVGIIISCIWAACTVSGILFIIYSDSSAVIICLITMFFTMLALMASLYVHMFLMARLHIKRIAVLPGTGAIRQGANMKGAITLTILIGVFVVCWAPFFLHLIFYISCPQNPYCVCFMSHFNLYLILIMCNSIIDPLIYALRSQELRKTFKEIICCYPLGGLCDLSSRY
Sequence of Cytochrome P450 2E1 (P05181 whole entry): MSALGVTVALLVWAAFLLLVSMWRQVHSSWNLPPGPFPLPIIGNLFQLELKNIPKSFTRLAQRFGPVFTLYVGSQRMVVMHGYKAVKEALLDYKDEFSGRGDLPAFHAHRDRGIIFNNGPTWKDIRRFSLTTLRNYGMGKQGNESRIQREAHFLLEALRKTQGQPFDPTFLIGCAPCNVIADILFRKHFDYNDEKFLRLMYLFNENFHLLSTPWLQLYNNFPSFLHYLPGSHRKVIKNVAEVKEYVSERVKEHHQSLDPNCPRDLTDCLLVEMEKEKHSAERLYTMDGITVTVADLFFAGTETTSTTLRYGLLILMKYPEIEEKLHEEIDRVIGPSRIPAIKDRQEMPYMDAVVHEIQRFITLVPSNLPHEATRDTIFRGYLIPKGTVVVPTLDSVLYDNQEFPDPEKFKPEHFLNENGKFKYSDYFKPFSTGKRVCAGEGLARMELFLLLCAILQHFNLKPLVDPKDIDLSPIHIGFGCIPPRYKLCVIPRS

As for `CC(=O)N[C@@H]1[C@H](Oc2c3cc4cc2Oc2ccc(cc2Cl)[C@@H](O[C@@H]2O[C@@H](CO)[C@@H](O)[C@H](O)[C@@H]2NC(C)=O)[C@@H]2NC(=O)[C@H](NC(=O)[C@@H]4NC(=O)[C@H]4NC(=O)[C@@H](Cc5ccc(c(Cl)c5)O3)NC(=O)[C@H](N)c3ccc(O)c(c3)Oc3cc(O)cc4c3)c3ccc(O)c(c3)-c3c(O[C@H]4O[C@H](CO)[C@@H](O)[C@@H](O)[C@@H]4O)cc(O)cc3[C@@H](C(=O)O)NC2=O)O[C@@H](CO)[C@@H](O)[C@@H]1O`, the IC50 result (in series [1]; in series [2]; against Insulin receptor; against Cytochrome P450 2E1; in [3]; on Mu-type opioid receptor) was “Not Active” in each case. In addition, the concentration for half-maximal inhibition (IC50) entry (in [4]; in [5]; against Melanocortin receptor 4; at Cytochrome P450 2A6; in series [6]) was “Not Active” in each case. The Ki entry (in [1]; on Cytochrome P450 2E1; in series [3]; in series [4]; in series [5]; at Cytochrome P450 2A6) was “Not Active” each time.
Consider `COCCCOc1ccnc(C[S+]([O-])c2nc3ccccc3[nH]2)c1C` (stereo not given) [RABEPRAZOLE], for which the IC50 entry (in series [1]; in [2]; on Insulin receptor; against Cytochrome P450 2E1; in series [3]; at Mu-type opioid receptor) was “Not Active” in each case. Also, the IC50 – broadly, the concentration that gives 50% inhibition – in [4] (read-out: IC50) is 2280 nM; in series [5], “Not Active”; against Melanocortin receptor 4, “Not Active”; against Cytochrome P450 2A6, “Not Active”; in series [6] it was “Not Active”. The Ki result (in series [1]; at Cytochrome P450 2E1; in [3]; in [5]; at Cytochrome P450 2A6) was “Not Active” in each case.
On to `CNC(=C[N+](=O)[O-])NCCSCc1ccc(CN(C)C)o1` [RANITIDINE], for which the IC50 result (in series [1]; in series [2]; on Insulin receptor; against Cytochrome P450 2E1; in series [3]; at Mu-type opioid receptor) was “Not Active” in each case. In addition, the IC50 result (in series [4]; in series [5]; against Melanocortin receptor 4; against Cytochrome P450 2A6; in series [6]) was “Not Active” each time. Moreover, the Ki entry (in [1]; at Cytochrome P450 2E1; in series [3]; in [4]; in series [5]; on Cytochrome P450 2A6) was “Not Active” throughout.
With `CO[C@H]1/C=C/O[C@@]2(C)Oc3c(C)c(O)c4c(c3C2=O)C2=NC3(CCN(CC(C)C)CC3)NC2=C(NC(=O)/C(C)=C\C=C\[C@H](C)[C@H](O)[C@@H](C)[C@@H](O)[C@@H](C)[C@H](OC(C)=O)[C@@H]1C)C4=O` [RIFABUTIN], the half-maximal inhibitory concentration (IC50) entry (in series [1]; in series [2]; against Insulin receptor; at Cytochrome P450 2E1; in series [3]; at Mu-type opioid receptor) was “Not Active” throughout. Moreover, the IC50 entry (in [4]; in [5]; against Melanocortin receptor 4; against Cytochrome P450 2A6; in series [6]) was “Not Active” in each case. Moreover, the Ki result (in [1]; at Cytochrome P450 2E1; in series [3]; in [4]; in [5]; on Cytochrome P450 2A6) was “Not Active” each time.
Consider `CC(C)CC(N(C)C)C1(c2ccc(Cl)cc2)CCC1` (stereo not given) [SIBUTRAMINE], for which the concentration for half-maximal inhibition (IC50) result (in series [1]; in series [2]; on Insulin receptor; at Cytochrome P450 2E1; in series [3]; on Mu-type opioid receptor) was “Not Active” throughout. The half-inhibitory concentration (IC50) entry (in series [4]; in [5]; against Melanocortin receptor 4; at Cytochrome P450 2A6; in [6]) was “Not Active” in each case. The Ki result (in [1]; at Cytochrome P450 2E1; in series [3]; in [4]; in series [5]; at Cytochrome P450 2A6) was “Not Active” each time.
Regarding `[H]/N=C(/N)N[C@H]1[C@H](O)[C@@H](O)[C@H](O[C@@H]2O[C@@H](C)[C@](O)(C=O)[C@H]2O[C@@H]2O[C@@H](CO)[C@H](O)[C@@H](O)[C@@H]2NC)[C@@H](N/C(N)=N\[H])[C@@H]1O` [STREPTOMYCIN], the 50% inhibitory concentration (IC50) entry (in series [1]; in series [2]; on Insulin receptor; against Cytochrome P450 2E1; in series [3]; at Mu-type opioid receptor) was “Not Active” throughout. In addition, the IC50 entry (in series [4]; in series [5]; on Melanocortin receptor 4; on Cytochrome P450 2A6; in series [6]) was “Not Active” in each case. For the same compound, the Ki entry (in series [1]; at Cytochrome P450 2E1; in series [3]; in [4]; in [5]; on Cytochrome P450 2A6) was “Not Active” each time.
Turning to `COc1cc(NS(=O)(=O)c2ccc(N)cc2)nc(OC)n1` [SULFADIMETHOXINE], the IC50 result (in [1]; in series [2]; on Insulin receptor; against Cytochrome P450 2E1; in series [3]; at Mu-type opioid receptor) was “Not Active” throughout. Besides, the IC50 result (in series [4]; in series [5]; on Melanocortin receptor 4; on Cytochrome P450 2A6; in series [6]) was “Not Active” in each case. In addition, the Ki entry (in series [1]; on Cytochrome P450 2E1; in [3]; in series [4]; in [5]; at Cytochrome P450 2A6) was “Not Active” throughout.
For the compound `Cc1cc(C)nc(NS(=O)(=O)c2ccc(N)cc2)n1` [SULFAMETHAZINE], the IC50 result (in series [1]; in series [2]; against Insulin receptor; against Cytochrome P450 2E1; in series [3]; on Mu-type opioid receptor) was “Not Active” in each case. Moreover, the IC50 result (in series [4]; in series [5]; on Melanocortin receptor 4; against Cytochrome P450 2A6; in [6]) was “Not Active” throughout. The Ki result (in series [1]; at Cytochrome P450 2E1; in series [3]; in series [4]; in series [5]; on Cytochrome P450 2A6) was “Not Active” throughout.

The record behind these values is ChEMBL document CHEMBL1909046, “DrugMatrix in vitro pharmacology data”.
